Test results as given in ChEMBL document CHEMBL3576836, “Bioactive Metabolites from the Fruits of Psoralea corylifolia” (J Nat Prod, 2015).
Active and inactive are the calls of the source. The calls are words filed in the database; no cut-off is given here.

Legend:
[1] = Inhibition of Streptococcus mutans OMZ65 recombinant sortase A delta-40 mutant using Dabcyl-QALPETGEE-Edans as substrate after 1 hr by fluorescence spectrophotometry
[2] = system: A549; assay: Cytotoxicity against human A549 cells after 48 hrs by MTT assay; assay type: functional, cell-based; conditions: A549, 48 h
[3] = system: K562; assay: Cytotoxicity against human K562 cells after 48 hrs by MTT assay; assay type: functional, cell-based; conditions: K562, 48 h
[4] = target: T1, NAD-dependent protein deacetylase sirtuin-1 (Homo sapiens) (UniProt Q96EB6); assay: Increase in SIRT1 (unknown origin) deacetylation activity at 10 uM
T1 sequence (whole entry): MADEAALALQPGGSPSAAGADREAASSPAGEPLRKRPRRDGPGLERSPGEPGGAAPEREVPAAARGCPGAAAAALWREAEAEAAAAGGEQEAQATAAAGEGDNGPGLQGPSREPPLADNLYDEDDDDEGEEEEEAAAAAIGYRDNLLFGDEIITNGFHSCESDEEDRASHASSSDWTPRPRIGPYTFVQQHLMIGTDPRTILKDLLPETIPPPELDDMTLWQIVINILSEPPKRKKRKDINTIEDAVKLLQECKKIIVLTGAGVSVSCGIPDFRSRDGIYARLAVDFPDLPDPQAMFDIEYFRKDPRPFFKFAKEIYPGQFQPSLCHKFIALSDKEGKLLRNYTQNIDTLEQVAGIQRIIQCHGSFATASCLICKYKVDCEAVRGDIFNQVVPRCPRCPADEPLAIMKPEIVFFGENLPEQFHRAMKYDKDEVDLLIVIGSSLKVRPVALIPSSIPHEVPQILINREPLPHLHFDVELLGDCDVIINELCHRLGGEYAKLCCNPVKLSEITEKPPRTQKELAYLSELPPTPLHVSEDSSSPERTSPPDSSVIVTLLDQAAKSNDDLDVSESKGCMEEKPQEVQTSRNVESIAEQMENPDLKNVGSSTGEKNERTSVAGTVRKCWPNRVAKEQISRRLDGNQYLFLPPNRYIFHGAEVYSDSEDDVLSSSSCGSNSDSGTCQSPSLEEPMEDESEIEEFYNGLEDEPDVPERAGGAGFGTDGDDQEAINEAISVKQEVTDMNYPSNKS

[5] = target: T1, NAD-dependent protein deacetylase sirtuin-1 (Homo sapiens); assay: Increase in SIRT1 (unknown origin) deacetylation activity
[6] = target: T1, NAD-dependent protein deacetylase sirtuin-1 (Homo sapiens); assay: Stimulation of SIRT1 (unknown origin) expressed in HEK293 cells coexpressing p53-Luc assessed as decrease in p53 transcriptional activity; assay type: cell-based
[7] = target: T1, NAD-dependent protein deacetylase sirtuin-1 (Homo sapiens); assay: Stimulation of SIRT1 (unknown origin) expressed in HEK293 cells assessed as increase in intracellular NAD+/NADH ratio; assay type: cell-based

Row | Compound | Activity [4] | IC50 [1] | IC50 [2] | IC50 [3] | Activity [5] | Activity [6] | Activity [7]
1 | CC(C)=CCc1cc(-c2coc3cc(O)ccc3c2=O)ccc1O [NEOBAVAISOFLAVONE] | inactive | 284 µM | > 10 µM | > 10 µM |  |  | 
2 | O=Cc1ccc(O)cc1 [4-HYDROXYBENZALDEHYDE] | inactive |  | > 10 µM | > 10 µM |  |  | 
3 | C=C(C)[C@@H]1Cc2cc3c(cc2O1)oc1c2ccc(O)cc2oc(=O)c31 | inactive |  | > 10 µM | > 10 µM |  |  | 
4 | CC1(C)Oc2ccc(-c3coc4cc(O)ccc4c3=O)cc2[C@H](O)[C@@H]1O | inactive |  | > 10 µM | > 10 µM |  |  | 
5 | O=Cc1ccc(O)c(O)c1 [PROTOCATECHUALDEHYDE] | inactive | 514 µM | > 10 µM | > 10 µM |  |  | 
6 | CC(C)(O)[C@@H]1Cc2cc3c(cc2O1)oc1c2ccc(O)cc2oc(=O)c31 | inactive | 138 µM | > 10 µM | > 10 µM |  |  | 
7 | CC(C)(O)[C@H]1Oc2cc3oc4c5ccc(O)cc5oc(=O)c4c3cc2[C@@H]1O | inactive | 119 µM | > 10 µM | > 10 µM |  |  | 
8 | CC1(C)Oc2ccc(-c3coc4cc(O)ccc4c3=O)cc2C[C@@H]1O | inactive | 236 µM | > 10 µM | > 10 µM |  |  | 
9 | CC(C)(O)[C@H]1Cc2c(ccc3c2O/C(=C\c2ccc(O)c(O)c2)C3=O)O1 | Active | 209 µM | > 10 µM | > 10 µM | Dose-dependent effect | Dose-dependent effect | Dose-dependent effect
10 | CC(C)=CCc1cc(-c2coc3cc(O)cc(O)c3c2=O)ccc1O [CORYLIN] | inactive | 272 µM | > 10 µM | > 10 µM |  |  | 
11 | O=c1ccc2ccc3occc3c2o1 [ANGELICIN] | inactive |  | > 10 µM | > 10 µM |  |  | 
12 | Para-Hydroxymercuribenzoic acid |  | 118 µM |  |  |  |  | 
13 | CC1(C)Oc2ccc(-c3coc4cc(O)ccc4c3=O)cc2[C@@H](O)[C@@H]1O | inactive |  | > 10 µM | > 10 µM |  |  | 
14 | O=c1ccc2cc3ccoc3cc2o1 [PSORALEN] | inactive | 330 µM | > 10 µM | > 10 µM |  |  | 
15 | CC(C)(O)c1cc2c3c(ccc2o1)C(=O)C[C@@H](c1ccc(O)cc1)O3 | Active | 135 µM | > 10 µM | > 10 µM | Dose-dependent effect | Dose-dependent effect | Dose-dependent effect

The next lines start with results.

Row | Activity [4] | Compound | IC50 [1] | IC50 [2] | IC50 [3] | Activity [5] | Activity [6] | Activity [7]
16 | inactive | COc1cc2oc(-c3ccc(O)cc3)cc(=O)c2cc1CC=C(C)C [BAVACHININ] |  | > 10 µM | > 10 µM |  |  | 
17 | inactive | CC(C)=CCc1cc(C(=O)/C=C/c2ccc(O)cc2)c(O)cc1O [BROUSSOCHALCONE B] |  | > 10 µM | > 10 µM |  |  | 
18 | inactive | C=C[C@@](C)(/C=C/c1ccc(O)cc1)CCC(=O)C(=C)C |  | > 10 µM | > 10 µM |  |  | 
19 | inactive | C=C[C@@](C)(/C=C/c1ccc(O)cc1)CC[C@@H](O)C(C)(C)O |  | > 10 µM | > 10 µM |  |  | 
20 | inactive | C=C[C@@](C)(/C=C/c1ccc(O)cc1)C/C=C/C(C)(C)O |  | > 10 µM | > 10 µM |  |  | 
21 | inactive | CC(C)(O)[C@@H]1Cc2cc3c(cc2O1)O[C@H](c1ccc(O)cc1)CC3=O |  | > 10 µM | > 10 µM |  |  | 
22 | inactive | CC(C)=CCc1c(O)ccc(C(=O)/C=C/c2ccc(O)cc2)c1O [ISOBAVACHALCONE] |  | > 10 µM | > 10 µM |  |  | 
23 | inactive | C=C(C)[C@H]1Cc2c(ccc3c2O/C(=C\c2ccc(O)c(O)c2)C3=O)O1 |  | > 10 µM | > 10 µM |  |  | 
24 | inactive | CC(C)=CCc1cc2c(cc1O)O[C@H](c1ccc(O)cc1)CC2=O [BAVACHIN] |  | > 10 µM | > 10 µM |  |  | 
25 | inactive | C=C[C@@](C)(/C=C/c1ccc(O)cc1)CCC1OC1(C)C (stereo not given in full) |  | > 10 µM | > 10 µM |  |  | 
26 | inactive | C=C(C)[C@@H]1Cc2cc3c(cc2O1)O[C@H](c1ccc(O)cc1)CC3=O |  | > 10 µM | > 10 µM |  |  | 
27 | inactive | Oc1ccc(O)cc1 [HYDROQUINONE] |  | > 10 µM | > 10 µM |  |  | 
28 | Active | CC(C)(O)[C@@H]1Oc2ccc(-c3coc4cc(O)ccc4c3=O)cc2[C@H]1O |  | > 10 µM | > 10 µM | Dose-dependent effect | Dose-dependent effect | Dose-dependent effect
